The source of these data is patent US9402821B2, “Methods and pharmaceutical compositions for treatment of cystic fibrosis” (INSERM (Institut National de la sante et de la Recherche …, priority 2012, dated 2016).

The target in this test is T1, ENaC (Homo sapiens, UniProt P37088+P51168+P51170).
T1 construct: endogenous in cells; host or cells: primary human nasal epithelial cells (HNEC)
T1 sequence (P37088 1-669): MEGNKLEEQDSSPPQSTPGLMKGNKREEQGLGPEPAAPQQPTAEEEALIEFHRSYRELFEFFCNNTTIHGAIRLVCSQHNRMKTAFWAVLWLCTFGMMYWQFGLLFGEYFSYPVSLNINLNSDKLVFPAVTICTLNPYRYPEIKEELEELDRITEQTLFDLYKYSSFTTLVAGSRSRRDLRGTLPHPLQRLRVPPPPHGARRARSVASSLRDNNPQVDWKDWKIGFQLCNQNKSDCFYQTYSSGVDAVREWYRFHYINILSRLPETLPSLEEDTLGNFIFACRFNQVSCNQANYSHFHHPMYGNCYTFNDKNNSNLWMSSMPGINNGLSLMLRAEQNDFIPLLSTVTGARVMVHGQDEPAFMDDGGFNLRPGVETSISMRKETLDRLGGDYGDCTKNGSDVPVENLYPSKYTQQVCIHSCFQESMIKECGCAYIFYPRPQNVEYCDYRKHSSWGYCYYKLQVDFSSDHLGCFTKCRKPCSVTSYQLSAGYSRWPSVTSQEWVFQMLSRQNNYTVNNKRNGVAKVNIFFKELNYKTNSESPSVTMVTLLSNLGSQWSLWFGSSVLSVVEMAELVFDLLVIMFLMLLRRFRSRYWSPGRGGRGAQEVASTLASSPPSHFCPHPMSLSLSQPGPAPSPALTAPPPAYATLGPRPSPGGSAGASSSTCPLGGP
T1 sequence (P51168 1-640): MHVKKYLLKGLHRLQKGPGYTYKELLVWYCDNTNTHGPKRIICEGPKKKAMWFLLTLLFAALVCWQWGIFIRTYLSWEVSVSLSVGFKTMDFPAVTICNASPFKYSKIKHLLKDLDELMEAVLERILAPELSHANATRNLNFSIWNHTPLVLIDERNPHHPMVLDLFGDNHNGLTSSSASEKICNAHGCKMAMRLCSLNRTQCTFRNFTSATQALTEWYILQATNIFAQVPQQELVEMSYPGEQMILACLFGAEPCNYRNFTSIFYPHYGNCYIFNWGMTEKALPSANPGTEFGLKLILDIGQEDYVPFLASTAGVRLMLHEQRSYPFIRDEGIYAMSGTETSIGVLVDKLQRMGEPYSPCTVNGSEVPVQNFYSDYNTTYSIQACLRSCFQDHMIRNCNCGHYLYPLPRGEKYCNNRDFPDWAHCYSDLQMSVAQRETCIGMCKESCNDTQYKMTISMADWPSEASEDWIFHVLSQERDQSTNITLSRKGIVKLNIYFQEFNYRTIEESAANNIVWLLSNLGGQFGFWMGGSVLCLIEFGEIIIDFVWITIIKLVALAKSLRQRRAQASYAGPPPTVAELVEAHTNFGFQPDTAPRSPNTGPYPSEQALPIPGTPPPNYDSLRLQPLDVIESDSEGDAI
T1 sequence (P51170 1-649): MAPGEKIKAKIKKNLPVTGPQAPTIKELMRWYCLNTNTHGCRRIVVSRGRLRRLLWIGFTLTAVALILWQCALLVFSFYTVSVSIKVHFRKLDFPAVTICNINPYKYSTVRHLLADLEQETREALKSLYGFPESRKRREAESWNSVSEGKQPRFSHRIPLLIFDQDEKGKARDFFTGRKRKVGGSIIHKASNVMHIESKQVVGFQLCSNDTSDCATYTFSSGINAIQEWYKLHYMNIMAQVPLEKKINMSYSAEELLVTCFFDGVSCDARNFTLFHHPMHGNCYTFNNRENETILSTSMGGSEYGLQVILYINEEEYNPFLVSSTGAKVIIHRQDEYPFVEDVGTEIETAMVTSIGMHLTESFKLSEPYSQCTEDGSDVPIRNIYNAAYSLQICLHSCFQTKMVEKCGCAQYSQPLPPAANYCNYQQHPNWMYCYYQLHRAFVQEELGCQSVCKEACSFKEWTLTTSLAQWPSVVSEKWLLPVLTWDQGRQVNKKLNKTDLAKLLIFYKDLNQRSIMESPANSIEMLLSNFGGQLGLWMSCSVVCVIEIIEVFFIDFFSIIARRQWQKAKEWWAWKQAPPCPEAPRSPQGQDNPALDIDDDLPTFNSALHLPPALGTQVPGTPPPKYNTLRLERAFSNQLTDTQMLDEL
Kind of test: Short circuit current, amiloride sensitive transport in HNEC. The following applies: primary HNEC; 500 μM basolateral, 2 h. Type of test: cell-based. The procedure: B. Chloride activity in HeLa Wt cells was measured by MQAE assay, after 3 h of treatment by NSAID (500 μM) or diluent. CFTR activity was expressed in rate of UFA/sec, calculated by difference between ((Ft−F0)/t) with CFTR induction and ((Ft−F0)/t) without CFTR induction. […] C. Primary culture of human nasal epithelial cell (HNEC) grown on Snapwell filters (air-liquid interface) were exposed basolaterally to sulindac (500 μM) or vehicle for 2 h and immediately mounted into a voltage-clamp system to bioelectric measurements. Short circuit current was measured with addition of amiloride to evaluated amiloride sensitive transport or with forskolin and IBMX for induced cAMP-dependent Cl secretion.
Two cell models were used to the interface air-liquid model for ionic efflux assays by short circuit current and to dose the basolateral IL-8 secretion. Calu-3 are derived from lung adenocarcinoma and are able to polarized and express a high rate of endogenous CFTR. […] Transepithelial resistance and transepithelial potential difference were measured every 3 days using a microvoltmeter (World Precision Instruments, Astonbury, UK).
Cells were grown at 37° C. in a 5% CO2 incubator in DMEM with Glutamax (Invitrogen) and 10% fetal bovine serum (SVF). […] The effects of treatment in HNEC cultures on snapwell inserts were evaluated between days 10 and 16. […]

In the case of `CC1=C(CC(=O)O)c2cc(F)ccc2/C1=C\c1ccc([S+](C)[O-])cc1` (stereo not shown) [sulindac, (Z)-5-fluoro-2-methyl-1-[p-(methylsulfinyl)benzylidene]-indene-3-acetic acid], the “ENaC activity (amiloride sensitive short circuit current)” value is reported as “not induced modification of ENaC activity”.
